According to patent US12440476B2, “Agents that target telomerase reverse transcriptase (TERT) for treating cancer and sensitizing cancer cells to genotoxic therapy” (Northwestern University, priority 2022, dated 2025):

Experiments:
MCF7-FUCCI cells = assay: Time-lapse live-cell analysis of cell cycle; format: cell-based, human; conditions: 0.5 μM for 1 h, then 6 Gy, 6 days
Description: MCF7-FUCCI cells were seeded at 3×10^4 per well in 6-well plates, allowed to attach overnight, then treated with 0.5 μM NU-2 control, NU-1 or chrolactomycin for 1 h, followed by 6 Gy. Then, live-cell imaging was conducted using the IncuCyteS3. Phase contrast along with green and red channels were acquired at 20× magnification with scanning every 2 h for 6 days. 16 non-overlapping fields were captured for each well. Representative consecutive images were used to create the movies using Fiji (Schindelin et al., 2012).

CT26 cells [1] = assay: Senescence-associated beta-galactosidase (SA-β-Gal) assay; format: cell-based, mouse; conditions: non-toxic doses, 10 Gy, 5 days
Description: MCF7, Saos-2, or CT26 cells were seeded at 3×10^4 per well in 6-well plates and allowed to attach to plate overnight. For TERT inhibition, MCF7 cells were treated with DMSO vehicle, NU-2 (0.5 μM), NU-1 (0.5 μM), chrolactomycin (0.5 μM), BIBR 1532 (10 μM), or MST-312 (1 μM) for 1 h prior to IR, Saos-2 cells were treated with DMSO vehicle, NU-2 (1 μM), NU-1 (1 μM), chrolactomycin (1 μM), BIBR 1532 (20 μM), or MST-312 (1 μM) for 1 h prior to IR, and CT26 cells were treated with MSO vehicle, NU-2 (1 μM), NU-1 (1 μM), chrolactomycin (1 μM), BIBR 1532 (20 μM), or MST-312 (2 μM) for 1 h prior to IR. Then MCF7 and Saos-2 cells were irradiated with 0 or 6 Gy and CT26 cells with 0 or 10 Gy. After IR, MCF7 and Saos-2 cells were continuously cultured for 7 days and CT26 for 5 days, then fixed in 2% PFA and stained with staining buffer (1 mg/ml X-Gal (Golden Bio), 40 mM citric acid/sodium phosphate, 150 mM NaCl, 2 mM MgCl2, 3.3 mM K3[Fe(CN)6], 3.3 mM K4[Fe(CN)6], pH=6) for 16 h at 37° C., then washed with warm PBS three times and imaged in PBS within a week. Images were captured on a Zeiss Axiovert 200M microscope with a 20× Plan-NeoFluar objective and Axiocam digital camera. SA-β-Gal-positive and -negative cells were counted in more than 5 fields, yielding an average percentage indicated on each SA-β-Gal image as mean±SD. Three replicates were performed.
To examine the roles for STING, CT26 cells were seeded at 2×10^4 per well in 12-well plates and allowed to attach overnight. STING inhibitor C178 (0 or 4 μM) was added, followed by the addition of DMSO vehicle, NU-1 (1 μM), MST-312 (2 μM) or chrolactomycin (1 μM) for 1 h prior to 0 or 10 Gy. CT26 cells were cultured for 5 days, surviving cells were washed twice in PBS and cultured in fresh immune cell culture medium overnight. The CT26 cells were then cocultured with BMDCs for 12-16 h at a 1:2 ratio, and BMDCs were collected and analyzed after coculturing, as described above.

Tolerability in mice = format: in vivo; conditions: BALB/c mice
CT26 tumors = assay: Subcutaneous CT26 tumor growth, IR with or without NU-1, immunodeficient host; format: in vivo; conditions: NSG mice
Description: For tumor inoculation, 7-9 week BALB/c mice or NSG mice were subcutaneously injected in the flank with 0.5×10^6 CT26 cells in 100 μL PBS. On Day 9 (tumor average volume ˜30 mm^3), the tumor bearing BALB/c mice were randomly divided into 4 groups of 8, while the NSG mice were randomly divided into 2 groups of 5-6. For NU-1 treatment, 10 mg/kg of NU-1 in 100 μL PBS was injected intraperitoneally once on each of the 2 days before, the day of and 2 days after irradiation. Mouse weight was measured before treatment. Tumor irradiation was conducted on Day 11 using a RadSource RS-2000 X-Ray generator operating at 160 kV and 25 mA at 10 Gy, calibrated by NIST traceable dosimetry. From Day 7 after tumor inoculation, tumors were measured by calipers every 2-3 days and volume calculated using the formula: Tumor volume (mm^3)=length (mm)×width (mm)×width (mm)[…]. On Day 18 after tumor inoculation, tumors from 3 mice under each treatment condition were collected for histology analysis. The rest of the mice were continuously maintained and recorded until at least Day 28 or reaching the humane endpoint for tumor volume. No animals that formed tumors after injection with CT26 cells were excluded from any studies reported here.
CT26 tumors were collected 5 days after treatment (Day 18 after tumor inoculation) and fixed in 10% neutral formalin for 24 h. […]

CT26 cells [2] = assay: Clonogenicity assay (inhibitor alone); format: cell-based, mouse; conditions: 1 μM NU-1, 2 μM MST, 20 μM BIBR
Description: MCF7, Saos-2, or CT26 cells were seeded in 6-well plates at 100 cells per well in triplicate and allowed to attach overnight. MCF7 or CT26 cells were then treated with DMSO vehicle or TERT inhibitors in final concentration of 0.25, 0.5, 0.75, 1, 2 μM for NU-1, 2.5, 5, 7.5, 10, 20 μM for BIBR 1532, or 1, 2, 3, 4, 5 μM for MST-312. Saos-2 cells were treated with DMSO vehicle or TERT inhibitors in final concentration of 0.25, 0.5, 0.75, 1, 2 μM for NU-1 or 2.5, 5, 10, 20, 40 μM for BIBR 1532. The final volume of cell culture medium was 3 mL per well. MCF7 and Saos-2 cells were continuously cultured for 3 weeks and CT26 for 2 weeks in the presence of TERT inhibitors, fixed in methanol for 5 min, then stained with 0.5% crystal violet for 10 min at room temperature. After washing with water, the plates were dried at room temperature and imaged with an iBright Imaging System (Thermo Fisher Scientific).

## C=C1C(=O)[C@](C)(C(=O)OC)[C@H](CCc2cn(Cc3ccc(F)cc3F)nn2)O[C@@H]1C [NU-1]
MCF7-FUCCI cells
  Surviving cells arrested with G1 marker expression and senescent morphology: ~80%
CT26 cells [1]
  Senescence induction by IR: enhanced senescence induction by IR
Tolerability in mice
  Tolerability in mice: well-tolerated
CT26 tumors; IR + NU-1
  Tumor elimination: no longer sufficient to eliminate tumors
CT26 tumors; IR + NU-1 vs IR alone
  Tumor growth delay: enhanced growth delay
CT26 cells [2]
  Tolerance in clonogenic assay (inhibitor alone): tolerated
